Tests used:
[1] = test system: DAOY medulloblastoma cells; experiment: Cell cycle analysis by flow cytometry after release from thymidine/nocodazole mitotic block; type: cell-based, human; settings: for cells remained in G2/M: 10 μM curcumin; for G0/G1 / G2/M / S / Sub G0/G1: DAOY released from thymidine/nocodazole block
Procedure: (§1) DNA was stained with 100 μg/ml propidium iodide (PI) in hypotonic citrate buffer with 20 μg/ml ribonuclease A. Stained nuclei were analyzed for DNA-PI fluorescence using an Accuri C6 flow cytometer (Accuri Cytometers Inc., Ann Arbor, Mich.). Resulting DNA distributions for sub G0/G1, G0/G1, S and G2/M phase of the cell cycle were analyzed with CFlow plus software (Accuri Cytometers Inc).
(§2) For analysis of cell cycle profiles after mitotic block, cells were synchronized with 2 mM thymidine for 24 hours. The block was released for 3 hours and cells were arrested in prometaphase with 100 nM nocodazole for 12 hours. For G1/S arrest, cells were synchronized for 18 hours with 2 mM thymidine, released for 9 hours, followed by a second thymidine arrest for 18 hours. The block was then released in the presence of DMSO or curcumin as indicated and the cells were processed as described above.
as §2, with “above. […] The data from these cell cycle studies are the mean±SEM of three independent experiments. […]” for “above.”

[2] = test system: DAOY medulloblastoma cells; experiment: Cell cycle analysis by flow cytometry after release from G1/S block; type: cell-based, human; settings: for G0/G1 / G2/M / S: DAOY released from G1/S block
Procedure: as §1, §2
as §1, with “software (Accuri Cytometers. Inc).” for “software (Accuri Cytometers Inc).”
as §2, with “above. […] The data from these cell cycle studies are the mean±SEM of three independent experiments.” for “above.”
At 0, 4, 8, 12, 16 and 20 hours, cell cycle progression was analyzed by flow cytometry.

## COc1cc(/C=C/C(=O)CC(=O)/C=C/c2ccc(O)c(OC)c2)ccc1O [Curcumin, (E,E)-1,7-bis(4-hydroxy-3-methoxyphenyl)-1,6-heptadiene-3,5-dion]
[1]; six hours after release from mitotic block
  cells remained in G2/M: 47.7%
[1]; two hours after release from mitotic block
  cells remained in G2/M: 91.5%
[1]; 20 μM curcumin, 10 hours of release from mitotic block
  cells found in G2/M: 69.8%
[1]; 20 μM curcumin, after release from mitotic block
  cells in the sub-G0/G1 fraction: a significant amount of cells was in the sub-G0/G1 fraction
[1]; 10 μM Curcumin, 0 Hr
  G0/G1: 7.38 ± 3.12%
  G2/M: 70.15 ± 0.75%
  S: 17.68 ± 4.78%
  Sub G0/G1: 4.80 ± 2.40%
[1]; 10 μM Curcumin, 2 Hr
  G0/G1: 16.87 ± 4.87%
  G2/M: 64.16 ± 7.74%
  S: 10.76 ± 0.04%
  Sub G0/G1: 8.21 ± 2.91%
[1]; 10 μM Curcumin, 4 Hr
  G0/G1: 35.54 ± 1.94%
  G2/M: 46.47 ± 0.17%
  S: 9.47 ± 2.03%
  Sub G0/G1: 8.57 ± 0.13%
[1]; 10 μM Curcumin, 6 Hr
  G0/G1: 43.93 ± 3.13%
  G2/M: 33.43 ± 5.27%
  S: 12.07 ± 0.53%
  Sub G0/G1: 10.57 ± 2.67%
[1]; 10 μM Curcumin, 8 Hr
  G0/G1: 47.60 ± 4.00%
  G2/M: 26.86 ± 6.24%
  S: 15.54 ± 0.56%
  Sub G0/G1: 9.99 ± 2.79%
[1]; 10 μM Curcumin, 10 Hr
  G0/G1: 48.68 ± 8.18%
  G2/M: 22.65 ± 11.35%
  S: 19.88 ± 0.32%
  Sub G0/G1: 8.85 ± 3.45%
[1]; 20 μM Curcumin, 0 Hr
  G0/G1: 7.38 ± 3.12%
  G2/M: 70.15 ± 0.75%
  S: 17.68 ± 4.76%
  Sub G0/G1: 4.80 ± 2.40%
[1]; 20 μM Curcumin, 2 Hr
  G0/G1: 11.51 ± 2.81%
  G2/M: 67.21 ± 5.39%
  S: 13.86 ± 0.34%
  Sub G0/G1: 7.42 ± 2.92%
[1]; 20 μM Curcumin, 4 Hr
  G0/G1: 16.77 ± 1.63%
  G2/M: 65.00 ± 1.30%
  S: 10.77 ± 1.57%
  Sub G0/G1: 7.46 ± 1.36%
[1]; 20 μM Curcumin, 6 Hr
  G0/G1: 22.09 ± 0.81%
  G2/M: 52.27 ± 5.63%
  S: 14.02 ± 2.02%
  Sub G0/G1: 11.67 ± 4.37%
[1]; 20 μM Curcumin, 8 Hr
  G0/G1: 24.20 ± 0.30%
  G2/M: 51.55 ± 9.55%
  S: 13.45 ± 3.65%
  Sub G0/G1: 10.85 ± 5.55%
[1]; 20 μM Curcumin, 10 Hr
  G0/G1: 25.15 ± 0.85%
  G2/M: 48.95 ± 10.95%
  S: 14.22 ± 4.02%
  Sub G0/G1: 11.67 ± 6.07%
[2]; 20 μM curcumin, 20 hours after removal of the thymidine block
  cells that had not re-entered G0/G1: 56.9%
[2]; DAOY released from G1/S block in the presence of 10 μM curcumin (control 8-12 hours)
  time after release at which cells reached G2/M: 12 to 16 h
[2]; DAOY released from G1/S block in the presence of 20 μM curcumin (control 8-12 hours)
  time after release at which cells reached G2/M: 16 to 20 h
[2]; DAOY released from G1/S block with curcumin, up to 20 hours
  sub-G0/G1 signal (apoptosis): no sub-G0/G1 signal, was detected
[2]; 10 μM Curcumin, 0 Hr
  G0/G1: 48.15 ± 0.32%
  G2/M: 32.96 ± 1.97%
  S: 18.89 ± 2.17%
[2]; 10 μM Curcumin, 4 Hr
  G0/G1: 41.92 ± 5.16%
  G2/M: 25.88 ± 3.55%
  S: 32.13 ± 2.64%
[2]; 10 μM Curcumin, 8 Hr
  G0/G1: 24.94 ± 4.83%
  G2/M: 35.33 ± 5.04%
  S: 39.71 ± 4.45%
[2]; 10 μM Curcumin, 12 Hr
  G0/G1: 32.40 ± 8.28%
  G2/M: 44.92 ± 11.40%
  S: 22.71 ± 3.49%
[2]; 10 μM Curcumin, 16 Hr
  G0/G1: 42.40 ± 6.35%
  G2/M: 34.85 ± 9.11%
  S: 22.75 ± 3.63%
[2]; 10 μM Curcumin, 20 Hr
  G0/G1: 46.46 ± 2.96%
  G2/M: 29.88 ± 3.86%
  S: 23.66 ± 4.26%
[2]; 20 μM Curcumin, 0 Hr
  G0/G1: 48.15 ± 0.32%
  G2/M: 32.96 ± 1.97%
  S: 18.89 ± 2.17%
[2]; 20 μM Curcumin, 4 Hr
  G0/G1: 40.18 ± 5.31%
  G2/M: 28.33 ± 1.56%
  S: 31.55 ± 3.94%
[2]; 20 μM Curcumin, 8 Hr
  G0/G1: 31.66 ± 3.64%
  G2/M: 31.58 ± 2.35%
  S: 36.76 ± 2.49%
[2]; 20 μM Curcumin, 12 Hr
  G0/G1: 21.69 ± 2.77%
  G2/M: 40.44 ± 3.95%
  S: 37.87 ± 3.29%
[2]; 20 μM Curcumin, 16 Hr
  G0/G1: 20.99 ± 2.17%
  G2/M: 48.68 ± 5.04%
  S: 30.34 ± 4.57%
[2]; 20 μM Curcumin, 20 Hr
  G0/G1: 27.44 ± 4.69%
  G2/M: 43.06 ± 5.04%
  S: 29.53 ± 0.59%
